Data: patent US9908890B2, “Selective inhibitors of constitutive androstane receptor” (ST. JUDE CHILDREN'S RESEARCH HOSPITAL, priority 2014, dated 2018)

System: CAR- and PXR-regulated genes in human primary hepatocytes
Assay: Quantitative real-time PCR in human primary hepatocytes
Format: cell-based
Details: 48 h
Excerpt: RNA was extracted, cDNA synthesized, and gene expression analyzed by performing real-time PCR using Taqman probes for each gene. […] LS174T cells were maintained in 10% charcoal-dextran-treated, FBS media for 4 days before the experiment. […] Briefly, human primary hepatocytes (HPH) were maintained in William's E media with supplements for 4 days before treatment. […] RNA extracted was used for cDNA synthesis and measured by performing quantitative real-time PCR assays with Taqman probes.
Briefly, human primary hepatocytes (donor 5) were maintained in William's E Media with supplements for 4 days prior to treatment. […] RNA extracted was used for cDNA synthesis and measured by quantitative real-time PCR with Taqman probes. CYP2B6 and CYP3A4 mRNA were normalized to the internal control 18S and DMSO-treated samples were set to 1.
Cell lines or human hepatocytes were treated with chemicals for 24-48 hours before RNA was extracted and purified by using the Maxwell 16LEV simplyRNA tissue kit (Promega). Then, cDNA was prepared from 2 μg of RNA, and diluted cDNA was used to perform quantitative RT-PCR assays by using TaqMan probes (ABI; 7500 Thermocycler) with 18S as the internal standard.

CCOC(=O)Nc1ccc2c(c1)N(C(=O)CN(CC)CC)c1ccccc1CC2 [CINPA1]
CITCO-induced CAR transactivation of the CYP2B6 gene (1 μM CITCO plus CINPA1 (5, 1 or 0.3 μM for Donor 1, 2, 3)): effectively inhibited
rifampicin-induced PXR-mediated gene expression (5 μM CINPA1 with 10 μM rifampicin): could not reduce
